Assays:
[1] = tested on: 4T1 murine breast cancer cells; test: Ectopic 4T1 homografts in BALBc mice: tumor size and survival after TOL; type: in vivo, mouse; conditions: paclitaxel 20 mg/kg i.p. post-inoculation day 5; TOL: digoxin 3 mg/kg x8 + 4x30 min PEF 18 V/m on 2 successive days; n=12; FIG. 7
Procedure: FIG. 4 illustrates the average size of 4T1 homographs seen before and after each single treatment with TOL in which the duration of each of four exposures to PEFs of 18 V/m varied from 5-60 minutes (n=15). […] Further increase in stimulation duration had less of an effect on tumor reduction. Optimum tumor reduction is observed when the mice are exposed to a PEF for 30 minutes, or a range of exceeding 15 minutes and less than 60 minutes.
FIG. 6 depicts in vivo validation of the therapeutic efficacy of pulsed electric fields (PEFs) inducing osmotic lysis in a breast cancer mouse model. Ectopic homografts of 4T1 murine breast cancer cells were established in female, immune competent BALBc mice (n=12). The “TOL” group was injected with digoxin (7 mg/kg) and then exposed to the PEFs generated by a ring device. […] Tumor size was measured daily, beginning on Day 0 (first day of treatment) and every other day after Day 3 until NIH humane endpoint criteria were met for euthanasia.
FIG. 7 depicts in vivo validation of the therapeutic efficacy of pulsed electric fields (PEFs) inducing osmotic lysis in comparison to paclitaxel in a breast cancer mouse model. […] Homografts were measured on post-inoculation day 6 (treatment day 0), and again on post-treatment days 1 and 2 and then every other day until the criteria for humane endpoint euthanasia was met. […]

[2] = tested on: voltage gated sodium channel (VGSC); test: Immunohistochemical labeling of VGSC in 4T1 homografts; type: in vivo, mouse; conditions: 1 and 2 days after treating with paclitaxel; FIG. 8
Description: FIGS. 5A-5C depict the immunohistochemical labeling of voltage gated sodium channel (VGSC) in 4T1 homografts before (FIG. 5A) and after (FIG. 5B) a single 2-day treatment with TOL. Nuclei are counterstained with DRAQ5™ fluorescent probe. […] Low power calibration bar in FIG. 5B is 50 μm and the high power calibration bar in the inset is 25 μm. […] This observation may explain, in part the loss of TOL's efficacy that is observed after the first 2 days of treatment.
FIGS. 8A-8D depicts the immunohistochemical labeling of VGSC in 4T1 homografts before (FIG. 8A), 1 (FIG. 8B) and 2 days (FIG. 8C) after treating with paclitaxel. Nuclei are counterstained with DRAQ5. […] Low power calibration bar in FIG. 8B is 50 μm and the high power calibration bar in the inset in FIG. 8C is 25 μm. […] It is noted that there is a progressive reduction of VGSC labeling but not in the number of cells that express the highest levels of VGSC. […] The decrease in expression of VGSC is likely to contribute in the reduced efficacy of TOL when used concurrently with paclitaxel.

In the case of `CC(=O)O[C@H]1C(=O)[C@@]2(C)[C@H]([C@H](OC(=O)c3ccccc3)[C@]3(O)C[C@H](OC(=O)[C@H](O)[C@@H](NC(=O)c4ccccc4)c4ccccc4)C(C)=C1C3(C)C)[C@]1(OC(C)=O)CO[C@@H]1C[C@@H]2O` [paclitaxel], the “time from inoculation to humane endpoint euthanasia (survival)” value [1] is reported as “no significant effect on survival over controls” and the VGSC expression [2] is reported as “decreases significantly and progressively”.

Source: US12721894B2, “Method and system for applying pulsed electric fields with high uniformity using charged ring structures” (The Phantom Laboratory, Incorporated, priority 2020, dated 2026)
